According to patent US12509444B2, “Compounds and methods for CD73 modulation and indications therefor” (Plexxikon Inc., priority 2019, dated 2025):

Columns and labels:
[1] = biological target: T1, Human CD73 (amino acid residues 27-549) (Homo sapiens, UniProt P21589); assay: CD73 enzymatic assay (luciferase-based indirect assay, CellTiter-Glo); assay type: biochemical; details: 0.4 nM CD73, 150 μM AMP, 1 hour at room temperature
T1 construct: Human CD73 (amino acid residues 27-549); His tag (N); made in house; host or cells: E. coli
T1 sequence (P21589 27-549): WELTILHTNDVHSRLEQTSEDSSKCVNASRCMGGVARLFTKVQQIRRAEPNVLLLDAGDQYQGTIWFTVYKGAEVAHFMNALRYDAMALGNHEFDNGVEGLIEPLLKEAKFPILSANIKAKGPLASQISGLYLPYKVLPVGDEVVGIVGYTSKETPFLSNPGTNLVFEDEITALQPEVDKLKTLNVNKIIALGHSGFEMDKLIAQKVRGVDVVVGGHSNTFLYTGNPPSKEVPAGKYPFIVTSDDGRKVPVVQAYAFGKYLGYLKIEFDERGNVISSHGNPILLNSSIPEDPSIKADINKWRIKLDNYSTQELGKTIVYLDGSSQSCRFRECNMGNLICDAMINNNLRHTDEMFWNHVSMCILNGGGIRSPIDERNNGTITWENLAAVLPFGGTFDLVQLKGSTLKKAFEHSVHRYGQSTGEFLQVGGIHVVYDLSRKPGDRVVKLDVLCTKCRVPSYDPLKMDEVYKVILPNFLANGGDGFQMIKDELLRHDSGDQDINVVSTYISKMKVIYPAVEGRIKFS
Outline: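 His-tagged human CD73 (27-549) from E. coli, 0.4 nM, with 150 μM AMP in 50 mM HEPES pH 7.4, 0.01% Tween 20; 1 h at room temperature. AMP remaining read by CellTiter-Glo 2.0 luminescence with 1 μM final ATP after 30 min. IC50 from nonlinear regression of % inhibition.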

[2] = biological target: T2, human CD73 (Homo sapiens, UniProt P21589); assay: Inhibitor activity against CD73 in cell based assay (CD73 expressing CHO-K1 cells); details: CHO-K1 cells expressing human CD73, 150 μM AMP, 4 hours of incubation; read-out: CHO-K1 CELL VARIANT: CD73 IC50
T2 construct: expressed in transfected cells
T2 sequence (P21589 27-549): T1 sequence (P21589 27-549)
Outline: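 Stably transfected CHO-K1 cells expressing human CD73 (1×10^4/well) incubated 4 h with compound (8-point 1:3 titration, top 10 μM final, 0.2% DMSO) and 150 μM AMP. Residual AMP in supernatant measured by CellTiter-Glo luminescence with 1 μM ATP after 30 min at room temperature; IC50 by nonlinear regression of percent inhibition vs high/low controls.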

| Structure (SMILES) | IC50 [1] | IC50 [2] |
| --- | --- | --- |
| O=C(NC1CCC(F)(F)CC1)O[C@@H]1CN(c2cn[nH]c(=O)c2Cl)C[C@H]1F [P-0141, (3R,4R)-1-(5-chloro-6-oxo-1,6-dihydropyridazin-4-yl)-4-fluoropyrrolidin-3-yl (4,4-difluorocyclohexyl)carbamate] | 0.001 to 10 µM | 0.001 to 10 µM |
| CS(=O)(=O)N[C@H]1CC[C@H](NC(=O)O[C@@H]2CCN(c3cn[nH]c(=O)c3C#N)C2)CC1 [P-0144, (R)-1-(5-cyano-6-oxo-1,6-dihydropyridazin-4-yl)pyrrolidin-3-yl ((1r,4R)-4-(methylsulfonamido)cyclohexyl)carbamate] | 0.001 to 10 µM | 0.001 to 10 µM |
| N#Cc1c(N2CC[C@@H](OC(=O)NC3CCC(F)(F)CC3)C2)cn[nH]c1=O [P-0145, (R)-1-(5-cyano-6-oxo-1,6-dihydropyridazin-4-yl)pyrrolidin-3-yl (4,4-difluorocyclohexyl)carbamate] | 0.001 to 10 µM | 0.001 to 10 µM |
| O=C(NC1CCN(C(=O)NC2CC2)CC1)O[C@@H]1CCN(c2cn[nH]c(=O)c2Cl)C1 [P-0146, (R)-1-(5-chloro-6-oxo-1,6-dihydropyridazin-4-yl)pyrrolidin-3-yl (1-(cyclopropylcarbamoyl)piperidin-4-yl)carbamate] | 0.001 to 10 µM | 0.001 to 10 µM |
| O=C(N[C@H]1CC[C@H](NS(=O)(=O)NC2CCCC2)CC1)O[C@@H]1CCN(c2cn[nH]c(=O)c2Cl)C1 [P-0153, (R)-1-(5-chloro-6-oxo-1,6-dihydropyridazin-4-yl)pyrrolidin-3-yl ((1r,4R)-4-((N-cyclopentylsulfamoyl)amino)cyclohexyl)carbamate] | 0.001 to 10 µM | 0.001 to 10 µM |
| Cc1c(N2CC[C@@H](OC(=O)NC3CCC(F)(F)C3)C2)cn[nH]c1=O (stereo partly drawn) [P-0154, (R)-1-(5-methyl-6-oxo-1,6-dihydropyridazin-4-yl)pyrrolidin-3-yl (3,3-difluorocyclopentyl)carbamate] | 0.001 to 10 µM | 0.001 to 10 µM |
| NC(=O)N[C@H]1CC[C@H](NC(=O)O[C@@H]2CCN(c3cn[nH]c(=O)c3Cl)C2)CC1 [P-0156, (R)-1-(5-chloro-6-oxo-1,6-dihydropyridazin-4-yl)pyrrolidin-3-yl ((1r,4R)-4-ureidocyclohexyl)carbamate] | 0.001 to 10 µM | 0.001 to 10 µM |
| NCC(=O)N1CCC(NC(=O)O[C@@H]2CCN(c3cn[nH]c(=O)c3Cl)C2)CC1 [P-0159, (R)-1-(5-chloro-6-oxo-1,6-dihydropyridazin-4-yl)pyrrolidin-3-yl (1-glycylpiperidin-4-yl)carbamate] | 0.001 to 10 µM | 0.001 to 10 µM |
| CC(C)(C)OC(=O)NCC(=O)N1CCC(NC(=O)O[C@@H]2CCN(c3cn[nH]c(=O)c3Cl)C2)CC1 [P-0160, (R)-1-(5-chloro-6-oxo-1,6-dihydropyridazin-4-yl)pyrrolidin-3-yl (1-((tert-butoxycarbonyl)glycyl)piperidin-4-yl)carbamate] | 0.001 to 10 µM | 0.001 to 10 µM |
| CCOC(=O)NCC(=O)N1CCC(NC(=O)O[C@@H]2CCN(c3cn[nH]c(=O)c3Cl)C2)CC1 [P-0162, ethyl (R)-(2-(4-((((1-(5-chloro-6-oxo-1,6-dihydropyridazin-4-yl)pyrrolidin-3-yl)oxy)carbonyl)amino)piperidin-1-yl)-2-oxoethyl) carbamate] | 0.001 to 10 µM | 0.001 to 10 µM |
| CS(=O)(=O)NCC(=O)N1CCC(NC(=O)O[C@@H]2CCN(c3cn[nH]c(=O)c3Cl)C2)CC1 [P-0163, (R)-1-(5-chloro-6-oxo-1,6-dihydropyridazin-4-yl)pyrrolidin-3-yl (1-((methylsulfonyl)glycyl)piperidin-4-yl)carbamate] | 0.001 to 10 µM | 0.001 to 10 µM |

Next, values leading:

| IC50 [1] | IC50 [2] | Structure (SMILES) |
| --- | --- | --- |
| 0.001 to 10 µM | 0.001 to 10 µM | CCCS(=O)(=O)N[C@H]1CC[C@H](NC(=O)O[C@@H]2CCN(c3cn[nH]c(=O)c3Cl)C2)CC1 [P-0142, (R)-1-(5-chloro-6-oxo-1,6-dihydropyridazin-4-yl)pyrrolidin-3-yl ((1r,4R)-4-(propylsulfonamido)cyclohexyl)carbamate] |
| 0.001 to 10 µM | 0.001 to 10 µM | O=C(NC1CCC(C(F)(F)F)CC1)O[C@@H]1CCN(c2cn[nH]c(=O)c2Cl)C1 (stereo partly drawn) [P-0143, (R)-1-(5-chloro-6-oxo-1,6-dihydropyridazin-4-yl)pyrrolidin-3-yl (4-(trifluoromethyl)cyclohexyl) carbamate] |
| 0.001 to 10 µM | 0.001 to 10 µM | O=C(NC1CCN(C(=O)NC2CCCCC2)CC1)O[C@@H]1CCN(c2cn[nH]c(=O)c2Cl)C1 [P-0147, (R)-1-(5-chloro-6-oxo-1,6-dihydropyridazin-4-yl)pyrrolidin-3-yl (1-(cyclohexylcarbamoyl)piperidin-4-yl)carbamate] |
| 0.001 to 10 µM | 0.001 to 10 µM | O=C(NC1CCN(C(=O)Nc2ccc(F)cc2)CC1)O[C@@H]1CCN(c2cn[nH]c(=O)c2Cl)C1 [P-0148, (R)-1-(5-chloro-6-oxo-1,6-dihydropyridazin-4-yl)pyrrolidin-3-yl (1-((4-fluorophenyl)carbamoyl)piperidin-4-yl)carbamate] |
| 0.001 to 10 µM | 0.001 to 10 µM | NC(=O)N1CCC(NC(=O)O[C@@H]2CCN(c3cn[nH]c(=O)c3Cl)C2)CC1 [P-0149, (R)-1-(5-chloro-6-oxo-1,6-dihydropyridazin-4-yl)pyrrolidin-3-yl (1-carbamoylpiperidin-4-yl)carbamate] |
| 0.001 to 10 µM | 0.001 to 10 µM | CS(=O)(=O)N1CCC(NC(=O)O[C@@H]2CCN(c3cn[nH]c(=O)c3Cl)C2)CC1 [P-0150, (R)-1-(5-chloro-6-oxo-1,6-dihydropyridazin-4-yl)pyrrolidin-3-yl (1-(methylsulfonyl)piperidin-4-yl)carbamate] |
| 0.001 to 10 µM | 0.001 to 10 µM | N#Cc1c(N2CC[C@@H](OC(=O)NC3CCN(C4CCCC4)CC3)C2)cn[nH]c1=O [P-0151, (R)-1-(5-cyano-6-oxo-1,6-dihydropyridazin-4-yl)pyrrolidin-3-yl (1-cyclopentylpiperidin-4-yl)carbamate] |
| 0.001 to 10 µM | 0.001 to 10 µM | O=C(N[C@H]1CC[C@H](NS(=O)(=O)C2CC2)CC1)O[C@@H]1CCN(c2cn[nH]c(=O)c2Cl)C1 [P-0152, (R)-1-(5-chloro-6-oxo-1,6-dihydropyridazin-4-yl)pyrrolidin-3-yl ((1r,4R)-4-(cyclopropanesulfonamido)cyclohexyl)carbamate] |
| 0.001 to 10 µM | 0.001 to 10 µM | Cn1ncc(N2CC[C@@H](OC(=O)NC3CCCC3)C2)c(Cl)c1=O [P-0155, (R)-1-(5-chloro-1-methyl-6-oxo-1,6-dihydropyridazin-4-yl)pyrrolidin-3-yl cyclopentylcarbamate] |
| 0.001 to 10 µM | 0.001 to 10 µM | O=CN[C@H]1CC[C@H](NC(=O)O[C@@H]2CCN(c3cn[nH]c(=O)c3Cl)C2)CC1 [P-0157, (R)-1-(5-chloro-6-oxo-1,6-dihydropyridazin-4-yl)pyrrolidin-3-yl ((1r,4R)-4-formamidocyclohexyl) carbamate] |
| 0.001 to 10 µM | 0.001 to 10 µM | O=C(N[C@H]1CC[C@H](NS(=O)(=O)c2ccccc2)CC1)O[C@@H]1CCN(c2cn[nH]c(=O)c2Cl)C1 [P-0158, (R)-1-(5-chloro-6-oxo-1,6-dihydropyridazin-4-yl)pyrrolidin-3-yl ((1r,4R)-4-(phenylsulfonamido)cyclohexyl)carbamate] |
| 0.001 to 10 µM | 0.001 to 10 µM | CC(=O)NCC(=O)N1CCC(NC(=O)O[C@@H]2CCN(c3cn[nH]c(=O)c3Cl)C2)CC1 [P-0161, (R)-1-(5-chloro-6-oxo-1,6-dihydropyridazin-4-yl)pyrrolidin-3-yl (1-(acetylglycyl)piperidin-4-yl)carbamate] |
